Counter-ions that a name gives are not always drawn.

The record followed here is US20060142304A1, “Method for treating or preventing pruritic and neurogenic skin disorders” (priority 2004, published 2006).

The test system of assay [1] is CD-1 mice. Kind of assay: Substance P-induced itch-associated scratching behavior in mice. Format: in vivo, mouse. From the text: In this model, an itch-associated response is induced by intradermal injection of the neuropetide, Substance-P, in mice, and scratching behavior is observed and quantitated. […] Clinically, scratching is used as an objective measure of itch since itch is a sensation which promotes the desire to scratch the stimulated area (Yosipovitch G., Definitions of Itch, in Itch Basic Mechanisms and Therapy, ed. Yosipovitch G., et al, 2003) Eight Albino male CD-1 mice per group, 7-9 weeks old, were used. Induction of scratching behavior in the mouse was based on known methods (Andoh T, et al., J Pharmacol Exp Ther. 286:1140-1145, 1998) and produces features similar to itch in humans. An itch-associated response was induced by intradermal injection of Substance P in CD-1 mice, and scratching behavior is observed and quantitated. Before the experiment, mice were individually housed in a plastic cage for at least 1 hour for acclimation. Mice are pre-treated for 30 minutes with topical application of Sertaconazole Nitrate (1%) prepared in 100% ethanol, to an area of the back, which had been shaved one day prior to the experiment. […] The number of scratches elicited during a 30 minute period after injection of Substance-P was determined by playback of the videotape.

Assay [2] deals with CD-1 mice. Kind of assay: Resiniferatoxin-induced neurogenic inflammation (ear edema) in the mouse ear. The conditions noted are these: for % Inhibition of the Ear Edema: topical to left ear (20 μL) immediately after resiniferatoxin (0.05%) challenge, 7-mm ear biopsy weight 30 minutes after, lidocaine 0.5% w/v, sertaconazole nitrate 1% w/v in 70% ethanol/30% propylene glycol. Format: in vivo. On the procedure: Eight Albino male CD-1 mice per group, 7-9 weeks old, were used. Induction of neurogenic inflammation in the mouse ear was based on known methods (Inoue H, et al., Br J Pharmacol. 110:1614-1620, 1993). A 20-μl volume of Resiniferatoxin (0.05%) prepared in acetone was applied to the left ears (8 mice per treatment group). The right ear was treated as a control and not treated. Lidocaine hydrochloride (Sigma Aldrich, St. Louis, Mo.) was prepared as a 0.5% w/v solution in 70% ethanol/30% propylene glycol vehicle. Sertaconazole nitrate (Grupo Ferrer International, Barcelona, Spain) was prepared as a 1.0% w/v solution in a 70% ethanol/30% propylene glycol vehicle and applied to the left ear (20 μL) immediately after resiniferatoxin challenge. The mice were sacrificed by CO2 inhalation 30 minutes after applying the solutions. The left and right ears were removed and a 7-mm biopsy was removed from each ear and weighed. The difference in biopsy weights between the right and left ear was calculated. The percent inhibition was calculated by comparing treatments to resiniferatoxin alone. Anti-neurogenic inflammation effects of compounds are evident as an inhibition of the increase in ear weight.

With `Clc1ccc(C(Cn2ccnc2)OCc2csc3c(Cl)cccc23)c(Cl)c1` (centres unmarked) [Sertaconazole Nitrate, Sertaconazole nitrate], in the assay with CD-1 mice [1] (Substance P scratching model, topical 1% sertaconazole nitrate), the “reduction of the itch compared to placebo” value amounted to 38.7%. The “Scratches per 30 min (Mean ± S. D.)” value in the assay with CD-1 mice [1] (topical 1% w/v in 100% ethanol on shaved back, 30 minutes pre-treatment, 300 ug Substance P intradermal, 30 minute period after injection) came out at 39.8 ± 2.7. The “reducing neurogenic inflammation (result in words)” value in the assay with CD-1 mice [2] (resiniferatoxin mouse ear model, compared to the control or untreated ear) is listed as “highly effective”. In the assay with CD-1 mice [2], the “% Inhibition of the Ear Edema” value amounted to 48.9%.
In the case of `CCN(CC)CC(=O)Nc1c(C)cccc1C` [Lidocaine, Lidocaine hydrochloride], the “% Inhibition of the Ear Edema” value in the assay with CD-1 mice [2] is 28.7%.
